From PubChem BioAssay (NCI)
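The compound was tested at five concentrations on cells cultured in 96-well plates, with a 48-hour exposure period. TGI denotes the concentration required for complete inhibition of growth.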

Columns and labels:
Assay in all cases: NCI-60 cell line screen, 48 h
SNB-19 CNS = test system: SNB-19 CNS
TK-10 renal = test system: TK-10 renal
SK-MEL-28 melanoma = test system: SK-MEL-28 melanoma
UACC-62 melanoma = test system: UACC-62 melanoma
K-562 leukemia = test system: K-562 leukemia
NCI-H522 lung = test system: NCI-H522 lung
OVCAR-3 ovarian = test system: OVCAR-3 ovarian
SF-268 CNS = test system: SF-268 CNS
HCT-15 colon = test system: HCT-15 colon
RPMI-8226 leukemia = test system: RPMI-8226 leukemia

SMILES | TGI (SNB-19 CNS) | TGI (TK-10 renal) | TGI (SK-MEL-28 melanoma) | TGI (UACC-62 melanoma) | TGI (K-562 leukemia) | TGI (NCI-H522 lung) | TGI (OVCAR-3 ovarian) | TGI (SF-268 CNS) | TGI (HCT-15 colon) | TGI (RPMI-8226 leukemia)
O=C(Nc1cc([N+](=O)[O-])cc([N+](=O)[O-])c1)OC1C2CCC1C1OC1C2 (stereo not given) | > 50 µM | > 50 µM | > 50 µM | > 50 µM | > 50 µM | > 50 µM | > 50 µM | > 50 µM | > 50 µM | > 50 µM
C[n+]1ccc2[nH]c3ccccc3c2c1 | > 100 µM | > 100 µM | > 100 µM | > 100 µM | > 100 µM | > 100 µM | > 100 µM | > 100 µM | > 100 µM | > 100 µM
CCN1CCC(O)(c2ccc(Cl)c(Cl)c2)C(C(=O)c2ccc(Cl)c(Cl)c2)C1 (stereo not given) | 35.1 µM | 30.5 µM | 33 µM | 31.5 µM | 37.7 µM | 13 µM | 27 µM | 38.6 µM | 36.6 µM | 5.72 µM
COc1ccc(CC(C#N)c2cc(OC)c(OC)c(OC)c2)cc1 (stereo not given) | > 100 µM | > 100 µM | > 100 µM | > 100 µM | > 47.4 µM | 0.135 µM | 0.113 µM | > 71.4 µM | 11 µM | 46.6 µM
